Read-outs that look alike come from different tables or passages of the source.
Key:
[1] = tested on: Lin− CD34+CB HSPCs; assay: High throughput screen of CYP family inhibitors for in vitro HSPC expansion
Method: FIG. 16: Primary screen for inhibitors of Cytochrome […] oxidases and promotion of in vitro HSPC expansion by primitive marker expression. 1000 flow sorted Lin− CD34+CB HSPCs were plated per well of a 96-well plate and test compounds were added at three doses (0.1 uM, 1.0 uM, 10 uM) in triplicate. Cell cultures were refreshed with medium every 3 days and at day 10 cells were counted and assessed for CD34 marker expression. […] Columns marked by “x” have a >2-fold increase compared to DMSO. Columns marked by “o” show at least a 1.5-fold increase compared to DMSO control. […] Data shown as mean+/−SEM from n=3 cultures.
FIG. 17: Primary screen for inhibitors of Cytochrome […] oxidases and promotion of in vitro HSPC expansion by total number CD34 marked cells. 1000 flow sorted Lin− CD34+CB HSPCs were plated per well of a 96-well plate and test compounds were added at three doses (0.1 uM, 1.0 uM, 10 uM) in triplicate. Cell cultures were refreshed with medium every 3 days and at day 10 cells were counted and assessed for CD34 marker expression. […] Columns marked by “x” have a >2-fold increase compared to DMSO. Columns marked by “o” show at least a 1.5-fold increase compared to DMSO control. […] Data shown as mean+/−SEM from n=3 cultures.
A screening approach was undertaken that tested the function of 3 alkaloid, 9 coumarin, and 17 flavonoid based compounds ([…], Table 1). The screening approach used 96-well plates seeded with 1000 FACS-purified CD34+ cells and treatment with 3 concentrations of each compound performed in triplicate culture wells (9 wells total per compound). Cells were cultured for 10 days and resultant growth was measured for cell number and surface marker expression by automated flow cytometer (MACS Quant).

[2] = tested on: Lin− CD34+ cells; assay: MSI2 OE and control suspension cultures with AHR antagonist SR1; format: cell-based, human; conditions: SR1 750 nM vs DMSO, 10 days
Method: GFP^+ cells were isolated (20,000 cells per culture) and allowed to proliferate with or without SR1 for an additional 7 days at which point they were counted and immunophenotyped for CD34 and CD133 expression. […] GFP^+ cells were isolated (20,000 cells per culture) and allowed to proliferate with FICZ (200 nM; Santa Cruz Biotechnology) or DMSO (0.1%) for an additional 3 days at which point they were immunophenotyped for CD34 and CD133 expression.

[3] = tested on: AHR; assay: AHR ChIP-seq comparison to downregulated gene sets; parameters: species or system human; conditions: ChIP-seq-identified AHR targets; SR1 500 nM, UM171 35 nM gene sets
Text: Percentage of down regulated genes with AHR bound regions was then graphed for each gene set. P-values were generated with Fisher's exact test between gene lists.

[4] = tested on: CYP enzymes; conditions: cited from earlier work
[5] = tested on: Lin− CD34+ cells; assay: HSPC expansion with TMS; format: cell-based, human; conditions: TMS 10 μM vs 0.1% DMSO, during culture
Method: Lin^− CD34^+ cells were cultured for 72 hours (lentiviral treated but non-transduced flow-sorted GFP^− cells) in StemSpan medium containing growth factors IL-6 (20 ng/ml), SCF (100 ng/ml), FLT3-L (100 ng/ml) and TPO (20 ng/ml) before the addition of the CYP1B1 inhibitor TMS (Abcam) at a concentration of 10 μM or mock treatment with 0.1% DMSO. Equal numbers of cells (12,000 per condition) were then allowed to proliferate for 7 days at which point they were counted and immunophenotyped for CD34 and CD133 expression.

[6] = summary statement referring to the Examples

For O=C1CC(c2ccc(O)cc2)Oc2cc(O)cc(O)c21 (centres unmarked) [Naringenin, 5,7-Dihydroxy-2-(4-hydroxyphenyl)chroman-4-one], the “self-renewal and expansion of hematopoietic stem and progenitor cell cultures” value (“self-renewal and expansion” below) [1, 6] was “promote the self-renewal and expansion”.
With CC(C)n1cnc2c(NCCc3ccc(O)cc3)nc(-c3csc4ccccc34)nc21 [SR1, StemRegenin 1] the “increase in percentage of CD34+ cells” value ([2]; MSI2 OE cultures) was 4 fold, the “increase in percentage of CD34+ cells” value ([2]; control transduced cultures) was 8 fold and the “enrichment of direct transcriptional targets of AHR in downregulated gene set compared to UM171” value [3] was 5.6 fold.
In the case of O=c1c(-c2ccc(O)cc2)coc2cc(O)ccc12 [Daidzein, 7-Hydroxy-3-(4-hydroxyphenyl) chromen-4-one], the IC50 [4] is listed as 7.9 µM.
With COc1ccc(-c2cc(=O)c3c(O)cc(O)cc3o2)cc1 [Acacetin, 5,7-dihydroxy-2-(4-methoxyphenyl)-4H-1-benzopyran-4-one] the “self-renewal and expansion” value [1, 6] was “promote the self-renewal and expansion”.
In the case of COc1cc(/C=C/c2ccc(OC)cc2OC)cc(OC)c1 [TMS, (E)-2,3′,4,5′-Tetramethoxystilbene], the “increase in frequency of CD34+ cells” value [5] is reported as 1.5 fold, the “increase in total numbers of CD34+ cells” value [5] is reported as 2 fold and the “% CD34+ at day 10 relative to DMSO” value ([1]; 1000 CD34+ cells per well, 0.1, 1.0, 10 uM, 10 days) is reported as > 2 fold. The “self-renewal and expansion” value [1, 6] was “promote the self-renewal and expansion”.
In the case of O=c1cc(-c2ccccc2)oc2cc(O)cc(O)c12 [Chrysin, 5,7-Dihydroxy-2-phenyl-4H-chromen-4-one], the “self-renewal and expansion” value [1] is reported as “promote the self-renewal and expansion”.

Source: patent US20190209618A1, “METHODS AND COMPOSITIONS FOR EXPANSION OF HEMATOPOIETIC STEM AND/OR PROGENITOR CELLS EMPLOYING A CYTOCHROME P450 1B1 (CYP1B1) INHIBITOR OR A MUSASHI-2 (MSI2) ACTIVATOR” (McMaster University, priority 2016, published 2019)
